# Test results reported in publication PMC2929268 (The Journal of organic chemistry, 2010).
# Experiments:
# hMC4R [1] = target: T1, hMC4R (Homo sapiens, UniProt P32245); assay: Assay B: europium-based competitive binding assay with probe 18; details: over the range of concentrations tested
# hMC4R [2] = target: T1, hMC4R; assay: Assay A: europium-based competitive binding assay with probe 17; details: over the range of concentrations tested
# T1 sequence (P32245 whole entry): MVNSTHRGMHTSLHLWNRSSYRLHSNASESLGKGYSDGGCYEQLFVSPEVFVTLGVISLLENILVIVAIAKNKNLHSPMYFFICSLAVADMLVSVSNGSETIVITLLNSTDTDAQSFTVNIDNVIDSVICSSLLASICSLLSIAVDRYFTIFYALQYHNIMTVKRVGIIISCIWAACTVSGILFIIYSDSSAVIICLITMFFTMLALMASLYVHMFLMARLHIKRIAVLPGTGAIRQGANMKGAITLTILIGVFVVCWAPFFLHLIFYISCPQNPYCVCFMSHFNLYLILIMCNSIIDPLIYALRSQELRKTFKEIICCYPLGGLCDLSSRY
structure (smiles),measurement,setting,value
"CCCCc1cn(CCCCCC(=O)NC(CO)C(N)=O)nn1 (centres unmarked) [Compound 11, N-(1-Amino-3-hydroxy-1-oxopropan-2-yl)-6-(4-butyl-1H-1,2,3-triazol-1-yl)hexanamide]",blocking probe 18 from binding to hMC4R,hMC4R [1],ineffective
same,blocking probe 17 from binding to hMC4R,hMC4R [2],ineffective
